Values of other authors, collected in PMC2864005 (Archives of biochemistry and biophysics, 2010).

Test system: 3A4
Conditions: after an initial burst

## CCC(C)n1ncn(-c2ccc(N3CCN(c4ccc(OCC5COC(Cn6cncn6)(c6ccc(Cl)cc6Cl)O5)cc4)CC3)cc2)c1=O (stereo not shown) [itraconazole]
  Rate of metabolism: 0.0016 s⁻¹
